The values that follow come from PubChem BioAssay (NCI).

“And” between values parts separate entries of the source, which are not always exact repeats. Identical values can stand only once.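 Exposure lasted 48 hours, with cells grown in 96-well plates and compounds tested at five concentrations. The concentration for 50% growth inhibition is given as GI50. TGI denotes the concentration required for complete inhibition of growth.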

Among the test systems are SK-MEL-2 melanoma; HCC-2998 colon; DU-145 prostate; BT-549 breast; UO-31 renal; SK-MEL-28 melanoma; PC-3 prostate; NCI/ADR-RES ovarian; RPMI-8226 leukemia; NCI-H460 lung.
Holding throughout (test): NCI anticancer screen, dose series, 48 h

Turning to `Oc1ccc(-c2[nH]c3ccccc3c2-c2nc3ccccc3o2)cc1`, the GI50 is 3.03 µM in the assay on SK-MEL-2 melanoma; 2.66 µM in the assay on HCC-2998 colon; 5.69 µM in the assay on DU-145 prostate; 5.41 µM in the assay with BT-549 breast; 0.893 µM in the assay with UO-31 renal; 4.83 µM in the assay with SK-MEL-28 melanoma. Besides, the GI50 in the assay on PC-3 prostate is 3.35 µM; with NCI/ADR-RES ovarian, 2.63 µM; in the assay on RPMI-8226 leukemia it was 14.3 µM; in the assay on NCI-H460 lung, 3.24 µM. For the same molecule, the TGI in the assay on SK-MEL-2 melanoma was 12.3 µM; with HCC-2998 colon, 7 µM; in the assay on DU-145 prostate, 18.3 µM; in the assay with BT-549 breast, 18.8 µM; with UO-31 renal it was 13.9 µM; with SK-MEL-28 melanoma, 17.9 µM. For the same molecule, the TGI in the assay on PC-3 prostate was determined as 18.5 µM; with NCI/ADR-RES ovarian, 9.04 µM; in the assay on RPMI-8226 leukemia it was 52.3 µM; with NCI-H460 lung, 11.5 µM.

Turning to `COc1ccc(C(=O)/C=C/c2ccc(OCc3ccccc3)c(OC)c2)cc1OC`, the GI50 is 11 µM in the assay with SK-MEL-2 melanoma; 3.22 µM with HCC-2998 colon; 2.76 µM in the assay on DU-145 prostate; 2.79 µM with BT-549 breast; 4.16 µM in the assay with UO-31 renal; 17.3 µM in the assay with SK-MEL-28 melanoma. Further, the GI50 with PC-3 prostate was 5.11 µM; with NCI/ADR-RES ovarian, 3.08 µM; with RPMI-8226 leukemia, 1.88 µM; with NCI-H460 lung, 2.93 µM. In addition, the TGI in the assay with SK-MEL-2 melanoma was 36.3 µM; with HCC-2998 colon, 28 µM; with DU-145 prostate, 8.1 µM; with BT-549 breast, 8.11 µM; with UO-31 renal, over 100 µM; in the assay on SK-MEL-28 melanoma, over 100 µM. Also, the TGI with PC-3 prostate is over 100 µM; with NCI/ADR-RES ovarian, over 100 µM; in the assay on RPMI-8226 leukemia, 7.16 µM; in the assay on NCI-H460 lung, 14.4 µM.

In the case of `CCN(CC)Cc1cc(Nc2cc(C(F)(F)F)c(C#N)c3nc4ccccc4n23)ccc1O`, the GI50 in the assay on SK-MEL-2 melanoma is 1.35 µM; with HCC-2998 colon it was 2.85 µM; in the assay on DU-145 prostate, 2.78 µM; in the assay with BT-549 breast it was 2.36 µM; in the assay with UO-31 renal, 1.12 µM; in the assay with SK-MEL-28 melanoma, 2.69 µM. The GI50 in the assay on PC-3 prostate was 2.32 µM; with NCI/ADR-RES ovarian it was 2.64 µM; in the assay with RPMI-8226 leukemia, 0.812 µM; in the assay with NCI-H460 lung, 1.59 µM. The TGI in the assay with SK-MEL-2 melanoma worked out at 7.81 µM; in the assay with HCC-2998 colon it was 15.2 µM; in the assay with DU-145 prostate it was 15.7 µM; with BT-549 breast, 8.75 µM; in the assay with UO-31 renal, 3.1 µM; in the assay with SK-MEL-28 melanoma, 17.4 µM. The TGI in the assay on PC-3 prostate stood at 7.87 µM; in the assay on NCI/ADR-RES ovarian it was 15.9 µM; with RPMI-8226 leukemia, 4.96 µM; in the assay with NCI-H460 lung, 10.7 µM.

As to `Cc1ccc(NC2=CC(=O)C(=O)c3ccccc32)c(C)c1`, the GI50 in the assay with SK-MEL-2 melanoma is 2.29 µM; in the assay with HCC-2998 colon, 2.54 µM; in the assay on DU-145 prostate, 1.58 µM; in the assay with BT-549 breast it was 2.17 µM; in the assay with UO-31 renal, 2.19 µM; in the assay on SK-MEL-28 melanoma, 3.54 µM. In addition, the GI50 in the assay on PC-3 prostate is 3.37 µM; in the assay with NCI/ADR-RES ovarian, 2.92 µM; in the assay with RPMI-8226 leukemia, 4.84 µM; in the assay on NCI-H460 lung it was 2.57 µM. For the same molecule, the TGI turned out to be 6.4 µM with SK-MEL-2 melanoma; 7.91 µM in the assay with HCC-2998 colon; 2.93 µM with DU-145 prostate; 7.2 µM in the assay on BT-549 breast; 14.5 µM in the assay on UO-31 renal; 13.5 µM with SK-MEL-28 melanoma. Besides, the TGI in the assay on PC-3 prostate is 17.1 µM; with NCI/ADR-RES ovarian, 11.8 µM; with RPMI-8226 leukemia it was 53.7 µM; with NCI-H460 lung, 7.68 µM.

With `O=c1c2ccccc2n2cnc3ccc(NCCNCCO)c1c32`, the TGI in the assay on SK-MEL-2 melanoma came to 8.8 µM; in the assay with HCC-2998 colon, 11.3 µM; in the assay on DU-145 prostate it was 3.31 µM; in the assay on BT-549 breast it was 16.6 µM; in the assay on UO-31 renal, 11.6 µM; with SK-MEL-28 melanoma, 11 µM. For the same molecule, the TGI in the assay with PC-3 prostate was 6.15 µM; with NCI/ADR-RES ovarian, 16.5 µM; in the assay with RPMI-8226 leukemia it was 17 µM; with NCI-H460 lung, 7.58 µM.

With `Cc1nn2c(-c3nc4cc(Cl)c(Cl)cc4[nH]3)c(-c3ccc(F)cc3)nc2s1`, the GI50 with SK-MEL-2 melanoma is 14.2 µM; with HCC-2998 colon it was over 100 µM; in the assay with DU-145 prostate it was 5.19 µM; in the assay on BT-549 breast it was 8.57 µM; in the assay with UO-31 renal, 1.64 µM; in the assay with SK-MEL-28 melanoma it was 7.4 µM. Also, the GI50 in the assay on PC-3 prostate is 9.29 µM; with NCI/ADR-RES ovarian, 2.7 µM; with RPMI-8226 leukemia, 2.44 µM; in the assay with NCI-H460 lung it was 1.75 µM. For the same molecule, the TGI in the assay on SK-MEL-2 melanoma was 94.5 µM; in the assay with HCC-2998 colon, over 100 µM; with DU-145 prostate, over 100 µM; with BT-549 breast it was over 100 µM; in the assay on UO-31 renal, 3.93 µM; with SK-MEL-28 melanoma, over 100 µM. Moreover, the TGI in the assay on PC-3 prostate was over 100 µM; in the assay with NCI/ADR-RES ovarian, over 30.3 µM; in the assay with RPMI-8226 leukemia, over 100 µM; in the assay with NCI-H460 lung, over 33.8 µM.

Regarding `N#Cc1cccc(C2C3=C(COC3=O)N(CCO)c3cc4c(cc32)CCC4)c1` (stereo not given), the GI50 in the assay with SK-MEL-2 melanoma is 0.319 µM; in the assay on HCC-2998 colon it was 0.186 µM; in the assay on DU-145 prostate, 0.191 µM; in the assay on BT-549 breast it was 0.182 µM; in the assay with UO-31 renal, 0.165 µM; in the assay with SK-MEL-28 melanoma, 0.437 µM. Besides, the GI50 with PC-3 prostate was 0.15 µM; in the assay with NCI/ADR-RES ovarian it was 0.15 µM; with RPMI-8226 leukemia, 0.212 µM; in the assay on NCI-H460 lung, 0.16 µM. Also, the TGI was over 44.5 µM with SK-MEL-2 melanoma; over 30.4 µM in the assay with HCC-2998 colon; 7.29 µM in the assay on DU-145 prostate; 5.35 µM with BT-549 breast; over 31.7 µM in the assay on UO-31 renal; over 50 µM in the assay with SK-MEL-28 melanoma. The TGI was over 50 µM in the assay on PC-3 prostate, over 50 µM in the assay with NCI/ADR-RES ovarian, over 28.1 µM with RPMI-8226 leukemia and 5.19 µM in the assay with NCI-H460 lung.

On to `Oc1c(I)cc(Cl)c2cccnc12`, for which the GI50 with SK-MEL-2 melanoma is 11 µM and 14.7 µM; with HCC-2998 colon, 5.55 µM and 12.7 µM; in the assay on DU-145 prostate, 5.9 µM and 21.2 µM; in the assay on BT-549 breast, 3.27 µM and 23.1 µM; in the assay with UO-31 renal, 2.35 µM and 22.1 µM; with SK-MEL-28 melanoma, 3.75 µM and 6.69 µM. Further, the GI50 in the assay with PC-3 prostate is 4.37 µM and 4.87 µM; in the assay with NCI/ADR-RES ovarian it was 3.21 µM and 4.12 µM; with RPMI-8226 leukemia, 3.43 µM and 2.86 µM; in the assay on NCI-H460 lung, 3 µM and 5.84 µM. Moreover, the TGI is > 100 µM and 41.3 µM with SK-MEL-2 melanoma; 36 µM and 59.4 µM with HCC-2998 colon; > 100 µM and 50.6 µM with DU-145 prostate; 8.99 µM and 65.3 µM in the assay on BT-549 breast; 11.5 µM and 52.9 µM in the assay on UO-31 renal; over 100 µM in the assay with SK-MEL-28 melanoma. In addition, the TGI was 57.5 µM and 81.6 µM in the assay on PC-3 prostate; 36 µM and 45.7 µM in the assay with NCI/ADR-RES ovarian; 27.2 µM and 10.8 µM in the assay with RPMI-8226 leukemia; > 100 µM and 85.1 µM with NCI-H460 lung.
